Experimental data from publication PMC7312375, “A Novel, Pan-PDE Inhibitor Exerts Anti-Fibrotic Effects in Human Lung Fibroblasts via Inhibition of TGF-β Signaling and Activation of cAMP/PKA Signaling” (International Journal of Molecular Sciences, 2020).

Tests used:
MRC-5 cells [1] = experiment: FBS-induced MRC-5 proliferation, alamarBlue assay; format: cell-based, human; conditions: for inhibition at 50 µM: Homo sapiens, MRC5, read-out: inhibition of FBS-induced MRC-5 proliferation rate; for MRC-5 proliferation [% of control]: 48 h with FBS
Description: The normal human lung fibroblast cell line—MRC-5 (ATCC® CCL-171™, Manassas, VA, USA)—was used in the study. Cells were cultured in Eagle’s Minimum Essential Medium (EMEM, ATCC® 30-2003™, Manassas, VA, USA) supplemented with 10% (v/v) fetal bovine serum (FBS; Gibco, Thermo Fisher Scientific, Waltham, MA, USA) and antibiotics mixture (penicillin, streptomycin, amphotericin B; Gibco, Thermo Fisher Scientific, Waltham, MA, USA) (standard culture medium) in standard culture conditions (5% CO2, 37 °C, 95% humidity). Unless otherwise specified, for the experiments, cells were seeded at a final density (5 × 10^3/cm^2) in standard culture medium for 24 h and then cultured in EMEM at reduced serum content (0.5%; v/v) for additional 24 h. TGF-β1 (BD Biosciences, San Jose, CA, USA) was administered at 5 ng/mL concentration in all experiments.
MRC-5 cell viability was evaluated using CytoTox-ONE™ Homogeneous Membrane Integrity Assay (Promega Corporation, Madison, WI, USA) according to the manufacturer’s protocol. The average fluorescence intensity with an excitation wavelength of 560 nm and an emission wavelength of 590 nm was measured using a microplate reader (SpectraMax® iD3, Molecular Devices, San Jose, CA, USA). Experiments were run three times in duplicates. MRC-5 proliferation was determined using the alamarBlue® assay. Cells were seeded for 24 h in standard culture medium, then serum-starved for an additional three days. Evaluated compounds (1-50 µM) were added 1 h prior FBS (10%, v/v) for an additional 48 h. After incubation, the alamarBlue® reagent (Invitrogen, Life Technologies, Carlsbad, CA, USA), dissolved in Hank’s Balanced Salt Solution (10% v/v; Gibco, Thermo Fisher Scientific, Waltham, MA, USA), was added for 30 min. After the observed color change, the supernatant was transferred to 96-well plates, and the absorbance was measured at 570 and 600 nm. The percent difference in reduction between treated and control cells was calculated according to the manufacturer’s protocol. The experiments were run three times in duplicates.

MRC-5 cells [2] = experiment: TGF-β1-induced collagen gel contraction assay; format: cell-based, human; conditions: 10 µM, 1 h pre-incubation, 6 h TGF-β1; compared to TGF-β1 alone
Description: A collagen cell contraction assay was performed according to manufactures’ instructions (Cell Biolabs, INC., San Diego, CA, USA). Briefly, MRC-5 was harvested and mixed with a collagen solution. After polymerization, collagen gel lattices were cultured for two days, during which mechanical tension develops. Before releasing the stressed matrix, MRC-5 cells were pre-treated with study compounds (10 µM) for 1 h. Then collagen gels were gently released from the sides of the culture dishes and contraction in the presence of study compounds, and TGF-β1 was initiated. The collagen gel size was monitored at various time points and quantified with the Fiji ImageJ Software (National Institutes of Health, Bethesda, MD, USA, version 1.52q). The experiments were run three times.

PDE3A = target: T1, PDE3A (Homo sapiens, UniProt Q14432); parameters: method as in PMID 31705904; conditions: published previously; read-out: PDE-IC50 3A; cited from earlier work
T1 construct: purchased SignalChem

PDE1A = target: T2, PDE1A (Homo sapiens, UniProt P54750); experiment: PDE-Glo assay, human recombinant PDE1A; format: biochemical; conditions: n.a. = not active; read-out: PDE-IC50 1A
T2 construct: purchased SignalChem
Description: Inhibitory activities of the investigated compounds against various subtypes of human recombinant (hr)PDEs, namely PDE1A, PDE1B, PDE1C, PDE3A, PDE3B, PDE4A, PDE4B, PDE4D, PDE7A, and PDE8A were assessed using a PDE-Glo^TM Assay Kit (Promega, Madison, WI, USA) according to the protocol provided by the manufacturer. Briefly, appropriate amounts of each enzyme (SignalChem, Richmond, B.C., Canada), diluted with PDE-Glo reaction buffer, were distributed on a 384-well plate (Thermo Scientific, Waltham, MA, USA). The investigated compounds were dissolved in DMSO, diluted with the same vehicle, and mixed with the reaction buffer at a v/v ratio of 1:5. Thereafter, 1 µL of these mixtures and 2.5 µL of the cAMP solution as a substrate were added. The final cAMP concentration was 0.05 µM. The samples were incubated for 10 min at 30 °C. […] Finally, 10 µL of PDE-Glo kinase reagent was added, and luminescence was measured using the POLARstar Omega plate reader (BMG LABTECH, Ortenberg, Germany). […] The relative activities (A, %) of all samples were calculated from the following equation: A = [(LUsample − LUblank)/(LUcontrol − LUblank)]·100%; where LUcontrol is the luminescence of a control sample in the absence of a PDE inhibitor, LUsample is a luminescence of an investigated sample in the presence of an inhibitor, and LUblank is a luminescence of a sample in the absence of enzyme (activity = 0). […]

PDE1B = target: T3, PDE1B (Homo sapiens, UniProt Q01064); parameters: method as in PMID 31705904; conditions: published previously; read-out: PDE-IC50 1B; cited from earlier work
T3 construct: purchased SignalChem
T3 sequence (Q01064 whole entry): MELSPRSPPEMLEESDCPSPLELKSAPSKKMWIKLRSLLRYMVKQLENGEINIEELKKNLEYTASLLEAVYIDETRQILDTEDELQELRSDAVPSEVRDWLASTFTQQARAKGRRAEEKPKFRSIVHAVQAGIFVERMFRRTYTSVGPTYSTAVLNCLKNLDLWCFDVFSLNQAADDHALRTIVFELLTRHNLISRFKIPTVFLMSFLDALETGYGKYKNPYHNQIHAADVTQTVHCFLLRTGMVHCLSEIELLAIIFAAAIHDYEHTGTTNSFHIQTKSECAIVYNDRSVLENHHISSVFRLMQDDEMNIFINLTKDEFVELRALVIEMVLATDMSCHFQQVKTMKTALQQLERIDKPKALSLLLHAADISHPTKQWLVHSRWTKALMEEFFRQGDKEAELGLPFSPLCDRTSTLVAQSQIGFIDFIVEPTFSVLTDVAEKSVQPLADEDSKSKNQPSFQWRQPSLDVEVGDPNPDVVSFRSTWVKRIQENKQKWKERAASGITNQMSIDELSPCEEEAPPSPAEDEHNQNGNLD

T2 sequence (P54750 whole entry): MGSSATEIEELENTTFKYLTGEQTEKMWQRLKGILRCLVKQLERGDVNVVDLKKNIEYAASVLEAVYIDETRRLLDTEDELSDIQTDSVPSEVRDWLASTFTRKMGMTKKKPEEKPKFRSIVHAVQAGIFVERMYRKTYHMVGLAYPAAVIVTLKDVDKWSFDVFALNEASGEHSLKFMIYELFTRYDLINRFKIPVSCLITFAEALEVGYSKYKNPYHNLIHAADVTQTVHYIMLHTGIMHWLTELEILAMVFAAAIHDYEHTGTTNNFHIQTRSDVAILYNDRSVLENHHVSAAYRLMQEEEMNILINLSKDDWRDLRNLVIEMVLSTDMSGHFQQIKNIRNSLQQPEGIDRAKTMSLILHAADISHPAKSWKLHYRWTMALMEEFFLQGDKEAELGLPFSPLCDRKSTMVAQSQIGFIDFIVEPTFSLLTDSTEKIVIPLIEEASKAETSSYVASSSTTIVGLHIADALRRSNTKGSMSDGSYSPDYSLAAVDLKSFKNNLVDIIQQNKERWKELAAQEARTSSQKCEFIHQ
T1 sequence (Q14432 whole entry): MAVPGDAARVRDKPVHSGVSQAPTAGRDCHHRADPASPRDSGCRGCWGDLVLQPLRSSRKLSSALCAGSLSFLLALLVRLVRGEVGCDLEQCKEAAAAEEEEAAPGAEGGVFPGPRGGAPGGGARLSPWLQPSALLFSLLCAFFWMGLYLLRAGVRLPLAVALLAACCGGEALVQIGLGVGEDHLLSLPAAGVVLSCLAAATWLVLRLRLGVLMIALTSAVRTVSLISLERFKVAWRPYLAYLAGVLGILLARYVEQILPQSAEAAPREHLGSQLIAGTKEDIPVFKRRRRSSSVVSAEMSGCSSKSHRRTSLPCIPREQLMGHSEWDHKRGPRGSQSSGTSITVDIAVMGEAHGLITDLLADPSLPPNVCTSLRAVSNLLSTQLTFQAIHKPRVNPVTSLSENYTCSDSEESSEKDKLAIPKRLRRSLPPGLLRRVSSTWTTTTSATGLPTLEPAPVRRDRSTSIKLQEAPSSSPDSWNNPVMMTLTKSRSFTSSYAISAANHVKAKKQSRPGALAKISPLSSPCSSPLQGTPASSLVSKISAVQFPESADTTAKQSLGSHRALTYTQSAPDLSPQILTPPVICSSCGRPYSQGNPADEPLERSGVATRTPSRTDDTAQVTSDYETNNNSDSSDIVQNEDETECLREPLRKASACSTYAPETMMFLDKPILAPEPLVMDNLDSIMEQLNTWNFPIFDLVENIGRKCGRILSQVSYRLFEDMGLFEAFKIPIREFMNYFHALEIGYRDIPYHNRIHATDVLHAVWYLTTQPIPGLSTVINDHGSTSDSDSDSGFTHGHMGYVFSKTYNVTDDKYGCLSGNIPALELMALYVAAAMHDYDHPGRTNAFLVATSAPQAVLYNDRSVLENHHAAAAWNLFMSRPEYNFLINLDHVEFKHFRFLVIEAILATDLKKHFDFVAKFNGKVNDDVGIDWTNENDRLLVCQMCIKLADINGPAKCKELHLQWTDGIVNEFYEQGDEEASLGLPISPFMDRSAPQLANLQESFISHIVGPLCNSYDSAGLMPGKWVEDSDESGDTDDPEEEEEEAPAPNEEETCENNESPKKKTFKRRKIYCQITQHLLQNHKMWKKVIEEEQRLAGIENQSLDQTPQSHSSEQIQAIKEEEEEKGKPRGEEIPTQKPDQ

| Structure (SMILES) | inhibition at 50 µM (MRC-5 cells [1]; 50 µM) [%] | MRC-5 proliferation [% of control] (MRC-5 cells [1]; Table S1 (Figure 2B), 1 µM) | MRC-5 proliferation [% of control] (MRC-5 cells [1]; Table S1 (Figure 2B), 5 µM) | MRC-5 proliferation [% of control] (MRC-5 cells [1]; Table S1 (Figure 2B), 10 µM) | MRC-5 proliferation [% of control] (MRC-5 cells [1]; Table S1 (Figure 2B), 15 µM) | MRC-5 proliferation [% of control] (MRC-5 cells [1]; Table S1 (Figure 2B), 20 µM) | MRC-5 proliferation [% of control] (MRC-5 cells [1]; Table S1 (Figure 2B), 50 µM) | size of collagen gel lattices (TGF-β1-induced contraction) (MRC-5 cells [2]) | IC50 (PDE3A) [nM] | IC50 (PDE1A) [nM] | IC50 (PDE1B) [nM] | MRC-5 proliferation [% of control] (MRC-5 cells [1]; Table S2 (Figure 5B), 1 µM) | MRC-5 proliferation [% of control] (MRC-5 cells [1]; Table S2 (Figure 5B), 5 µM) | MRC-5 proliferation [% of control] (MRC-5 cells [1]; Table S2 (Figure 5B), 10 µM) | MRC-5 proliferation [% of control] (MRC-5 cells [1]; Table S2 (Figure 5B), 50 µM) |
| --- | --- | --- | --- | --- | --- | --- | --- | --- | --- | --- | --- | --- | --- | --- | --- |
| COc1nc2c(c(=O)n(C)c(=O)n2C)n1CC(=O)Nc1ccc(C(C)(C)C)cc1 [Compound 869, N-(4-(tert-butyl)phenyl)-2-(8-methoxy-1,3-dimethyl-2,6-dioxo-1,2,3,6-tetrahydro-7H-purin-7-yl)acetamide] | 25 | 91 % of control | 89 % of control | 90 % of control | 88 % of control | 87 % of control | 75 % of control | increased only slightly |  |  |  |  |  |  |  |
| CC(C)Cn1c(=O)n(C)c(=O)c2[nH]cnc21 [IBMX, 3-isobutyl-1-methyl-3,7-dihydro-1H-purine-2,6-dione, reference compound] | 10 | 102 % of control | 99 % of control | 98 % of control | 100 % of control | 95 % of control | 90 % of control | restored the size of collagen gel lattices to that of the untreated control | 710 | 110 | 35700 |  |  |  |  |
| CCCCOc1nc2c(c(=O)n(C)c(=O)n2C)n1CCCC(=O)Nc1cc(C(C)(C)C)ccc1O [Compound 145, 4-(8-butoxy-1,3-dimethyl-2,6-dioxo-1,2,3,6-tetrahydro-7H-purin-7-yl)-N-(5-(tert-butyl)-2-hydroxyphenyl)butanamide] | 58 | 104 % of control | 91 % of control | 84 % of control | 74 % of control | 72 % of control | 42 % of control | restored the size of collagen gel lattices to that of the untreated control | 180 |  | 2690 | 93 % of control | 84 % of control | 83 % of control | 46 % of control |
| Cn1c(=O)c2c(nc(NCc3ccco3)n2CCCC(=O)NN=Cc2ccc(O)cc2O)n(C)c1=O [Compound 832, N′-(2,4-dihydroxybenzylidene)-4-(8-((furan-2-ylmethyl)amino)-1,3-dimethyl-2,6-dioxo-1,2,3,6-tetrahydro-7H-purin-7-yl)butanehydrazide] | 39 | 93 % of control | 87 % of control | 85 % of control | 82 % of control | 83 % of control | 61 % of control | increased only slightly |  | 7240 |  |  |  |  |  |
